Experimental data as given in the supplement of paper PMC8633005.

Key:
Assay in all cases: drug sensitivity score (DSS) (DSS (unitless, 0-50 scale)); higher = more sensitive (stronger viability inhibition); extreme values may be limits of the assay
Conditions in all cases: 72 h; culture: 2D
[1] = system: Bowes
Summary of the method: (§1)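 Drug sensitivity scores, modified area-under-curve measures, were derived from dose-response curves fitted in the in-house Breeze software. The curves came from melanoma cell lines and patient-derived melanoma cultures (1000–1500 cells per well) grown in 2D in 384-well plates holding a 527-compound oncology library. Each compound was dissolved in DMSO or water and tested at five concentrations across a 10,000-fold range. Viability was read by CellTiter-Glo luminescence after 72 h at 37 °C.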

[2] = system: FM-MEL-2
Summary of the method: as §1

[3] = system: FM-MEL-3
Summary of the method: as §1

[4] = system: FM-MEL-6
Summary of the method: as §1

[5] = system: SK-MEL-28
Summary of the method: as §1

[6] = system: SK-MEL-2
Summary of the method: as §1

[7] = system: WM165
Summary of the method: as §1

[8] = system: WM852
Summary of the method: as §1

Structure (SMILES) | drug sensitivity score [1] | drug sensitivity score [2] | drug sensitivity score [3] | drug sensitivity score [4] | drug sensitivity score [5] | drug sensitivity score [6] | drug sensitivity score [7] | drug sensitivity score [8]
CC[C@H](Nc1ncnc2[nH]cnc12)c1nc2cccc(F)c2c(=O)n1-c1ccccc1 [Idelalisib] | 0.2 | 3.1 | 1 | 1.8 | 4.1 | 0 | 0.7 | 0.4
Cc1ccc(NC(=O)c2ccc(CN3CCN(C)CC3)cc2)cc1Nc1nccc(-c2cccnc2)n1 [Imatinib] | 1 | 0.8 | 0 | 0 | 0.2 | 0 | 0.1 | 0.7
CC(C)Cn1cnc2c(N)nc3ccccc3c21 [Imiquimod] | 4.7 | 0 | 0 | 0 | 0 | 0 | 0 | 0.1
O=C(Nc1ccncc1)C(=O)c1cn(Cc2ccc(Cl)cc2)c2ccccc12 [Indibulin] | 11.1 | 1.4 | 6.1 | 6.9 | 4 | 3.7 | 7.8 | 5.3
CCN1CCN(c2ccc(Nc3cc(N(C)C(=O)Nc4c(Cl)c(OC)cc(OC)c4Cl)ncn3)cc2)CC1 [Infigratinib] | 0 | 0 | 0 | 0 | 0 | 0 | 0 | 0
CC(C)NC[C@@H](C(=O)N1CCN(c2ncnc3c2[C@H](C)C[C@H]3O)CC1)c1ccc(Cl)cc1 [Ipatasertib] | 0 | 2.1 | 0.3 | 0.9 | 1.7 | 0 | 2.2 | 0
CCC(C)n1ncn(-c2ccc(N3CCN(c4ccc(OCC5COC(Cn6cncn6)(c6ccc(Cl)cc6Cl)O5)cc4)CC3)cc2)c1=O (stereo unspecified) [Itraconazole] | 4.7 | 1.4 | 2.8 | 0 | 0 | 0 | 0 | 0.9
N#Cc1ccnc(N2C(=O)CC[C@H]2C(=O)N(c2cncc(F)c2)[C@H](C(=O)NC2CC(F)(F)C2)c2ccccc2Cl)c1 [Ivosidenib] | 0 | 0 | 0 | 0.3 | 0 | 0 | 0 | 0
C/C(=C\c1csc(C)n1)[C@@H]1C[C@@H]2O[C@]2(C)CCC[C@H](C)[C@H](O)[C@@H](C)C(=O)C(C)(C)[C@@H](O)CC(=O)N1 [Ixabepilone] | 8.5 | 0.8 | 5 | 3.7 | 2.3 | 2.9 | 3.6 | 6.1
CC(C)C[C@H](NC(=O)CNC(=O)c1cc(Cl)ccc1Cl)B(O)O [Ixazomib] | 8.8 | 4.9 | 13.6 | 17 | 9.6 | 11.2 | 10.4 | 0.9
Nc1cc(COc2c(Cl)cc(C[C@H](N)C(=O)O)cc2Cl)c2oc(-c3ccccc3)nc2c1 [JPH203] | 0 | 0 | 0 | 0.6 | 0 | 0 | 0 | 0
CS(=O)(=O)CCNCc1ccc(-c2ccc3ncnc(Nc4ccc(OCc5cccc(F)c5)c(Cl)c4)c3c2)o1 [Lapatinib] | 1.1 | 0.6 | 0.2 | 0.1 | 0 | 0 | 0 | 0
O=C(Nc1cnn2ccc(N3CCC[C@@H]3c3cc(F)ccc3F)nc12)N1CC[C@H](O)C1 [Larotrectinib] | 0 | 0 | 0 | 0 | 0 | 0 | 0 | 0
Oc1ccc2c(c1)CC[C@H](c1ccccc1)[C@@H]2c1ccc(OCCN2CCCC2)cc1 [Lasofoxifene] | 0 | 0 | 0 | 0 | 0 | 0 | 0 | 0
Nc1cccc2c1CN(C1CCC(=O)NC1=O)C2=O (stereo unspecified) [Lenalidomide] | 0 | 0 | 0 | 0 | 0 | 0 | 0 | 0
COc1cc2nccc(Oc3ccc(NC(=O)NC4CC4)c(Cl)c3)c2cc1C(N)=O [Lenvatinib] | 1.3 | 0 | 0 | 0 | 0 | 0 | 0 | 0
N#Cc1ccc(C(c2ccc(C#N)cc2)n2cncn2)cc1 [Letrozole] | 0 | 0 | 0 | 0 | 0 | 0 | 0 | 0
Cc1ccc(F)c(NC(=O)Nc2ccc(-c3cccc4[nH]nc(N)c34)cc2)c1 [Linifanib] | 2.2 | 0.1 | 0 | 0 | 0 | 0 | 0 | 0
C[C@]1(O)C[C@@H](c2nc(-c3ccc4ccc(-c5ccccc5)nc4c3)c3c(N)nccn32)C1 [Linsitinib] | 0 | 3.6 | 4.8 | 0.9 | 0 | 0 | 1.3 | 1
CCNCCS(=O)(=O)NC[C@@]1(c2ccccc2)SC(NC(=O)C(C)(C)C)=NN1C(=O)C(C)(C)C [Litronesib] | 18.8 | 2.4 | 8.6 | 10.2 | 2.2 | 13.1 | 18.9 | 23.7
Nc1nc(OCc2cc(Br)cs2)c2[nH]cnc2n1 [Lomeguatrib] | 0 | 0 | 0 | 0 | 0 | 0 | 0 | 0

Structure (SMILES) | drug sensitivity score [1] | drug sensitivity score [2] | drug sensitivity score [3] | drug sensitivity score [4] | drug sensitivity score [5] | drug sensitivity score [6] | drug sensitivity score [7] | drug sensitivity score [8]
NC(=O)N1CCC(CC(=O)N2CCC([C@H]3c4ncc(Br)cc4CCc4cc(Cl)cc(Br)c43)CC2)CC1 [Lonafarnib] | 30.9 | 9.4 | 18.2 | 8.1 | 8.1 | 5.3 | 13 | 12.1
Cc1c(F)cc(C(=O)NC2CC2)cc1-c1ccc(C(=O)NCC(C)(C)C)cn1 [Losmapimod] | 2.8 | 1.6 | 0.7 | 0 | 0 | 0 | 0 | 0
CC[C@H](C)C(=O)O[C@H]1C[C@@H](C)C=C2C=C[C@H](C)[C@H](CC[C@@H]3C[C@@H](O)CC(=O)O3)[C@H]21 [Lovastatin] | 2.1 | 0 | 0.1 | 0 | 0 | 0 | 1.8 | 0.6
CNC(=O)c1cccc2cc(Oc3ccnc4cc(OCC5(N)CC5)c(OC)cc34)ccc12 [Lucitanib] | 5.4 | 0.3 | 0 | 1.3 | 0 | 0 | 1.6 | 2.2
CCNC(=O)c1noc(-c2cc(C(C)C)c(O)cc2O)c1-c1ccc(CN2CCOCC2)cc1 [Luminespib] | 15.2 | 10.7 | 21.4 | 8.1 | 9.2 | 9.3 | 20.3 | 9.7
O=C(O)CC[C@H]1CC[C@@](c2cc(F)ccc2F)(S(=O)(=O)c2ccc(Cl)cc2)CC1 [MK-0752] | 0 | 0 | 0 | 0 | 0 | 0 | 0 | 0
NC1(c2ccc(-c3nc4ccn5c(=O)[nH]nc5c4cc3-c3ccccc3)cc2)CCC1 [MK-2206] | 0 | 2.6 | 0.9 | 1.9 | 2 | 0 | 1.1 | 0.4
O=C(c1cccc(Cl)c1F)N1CCN(Cc2cccc(Nc3nccs3)n2)CC1 [MK-8745] | 5.7 | 0 | 0.1 | 0 | 0.4 | 0 | 5.7 | 7.5
Cn1cc(-c2cnn3c(N)c(Br)c([C@@H]4CCCNC4)nc23)cn1 [MK-8776] | 0.9 | 0 | 1.7 | 0 | 0 | 2 | 0 | 1.9
Cc1cnc(-c2ccccc2C(C)C)nc1NCc1ccc(-n2ccnn2)cc1 [ML323] | 0.6 | 0 | 1.2 | 0 | 0 | 0 | 1.1 | 0.9
O=C(CCNC(=O)c1ccc(OC(F)(F)F)cc1)N[C@@H]1CCCc2ccccc21 [ML390] | 0 | 0 | 6.7 | 1.2 | 2.8 | 0 | 6.8 | 0
O=C(Nc1cccc(NC(=O)c2cccc(O)c2O)c1)c1cccc(O)c1O [MST-312] | 11.4 | 6.1 | 10.3 | 4 | 8.4 | 6.7 | 16 | 6.8
CNC(=O)[C@@H](NC(=O)[C@H](CC(C)C)[C@H](O)C(=O)NO)C(C)(C)C [Marimastat] | 0 | 0 | 0 | 0 | 0 | 0 | 0.6 | 0
Cc1ccc(NC(=O)c2ccc(CN3CCN(C)CC3)cc2)cc1Nc1nc(-c2cccnc2)cs1 [Masitinib] | 2.3 | 6.4 | 4.3 | 4.4 | 3.5 | 2.1 | 3.3 | 5.7
CC(=O)O[C@]1(C(C)=O)CC[C@H]2[C@@H]3C=C(C)C4=CC(=O)CC[C@]4(C)[C@H]3CC[C@@]21C [Megestrol acetate] | 0 | 0 | 1 | 0 | 0 | 0 | 0 | 0
CCN(CC)CCCC(C)Nc1c2ccc(Cl)cc2nc2ccc(OC)cc12 (stereo unspecified) [Mepacrine] | 19.6 | 15.1 | 9.9 | 14.2 | 10.3 | 13.6 | 17.1 | 17
S=c1[nH]cnc2nc[nH]c12 [Mercaptopurine] | 1.9 | 0.1 | 0 | 0.5 | 3.8 | 0 | 7.3 | 5.5
Cc1ccc(C(=O)Nc2ccc(Oc3cc4cnn(C)c4cc3-c3cn[nH]c3)c(F)c2)c(=O)n1-c1ccc(F)cc1 [Merestinib] | 0 | 0 | 0 | 0 | 0.4 | 0 | 0 | 2.2
CN(C)C(=N)NC(=N)N [Metformin] | 0 | 0 | 0 | 0 | 0 | 0 | 0 | 0
CN(Cc1cnc2nc(N)nc(N)c2n1)c1ccc(C(=O)N[C@@H](CCC(=O)O)C(=O)O)cc1 [Methotrexate] | 27.7 | 0 | 0 | 0 | 9 | 0 | 14.4 | 0
C[C@H]1C[C@@H]2[C@H]([C@@H](O)C[C@@]3(C)[C@H]2CC[C@]3(O)C(=O)CO)[C@@]2(C)C=CC(=O)C=C12 [Methylprednisolone] | 1 | 0 | 1.2 | 0 | 0.4 | 0 | 0 | 0
